For one assay, the target named is KDR kinase (Homo sapiens, UniProt P35968). The assay can be described thus: KDR kinase inhibition assay (LanthaScreen TR-FRET). The class given is biochemical. In short, it runs like this:
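Human KDR kinase (0.38 nM) phosphorylated poly-EAY (50 nM) with ATP in 50 mM Tris pH 7.4, 2 mM DTT, 10 mM Mg, 1 mM Ca for 1 h. Reaction stopped with EDTA, Tb-labeled P-20 antibody added for 45 min, and TR-FRET read as end point.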
On the technique in general: Time-resolved FRET reads energy transfer from a long-lived donor to a nearby acceptor.

The next assay has as its target T1, hERG (Homo sapiens, UniProt Q12809).
T1 construct: host or cells: crude membrane suspension
Description: hERG binding assay ([3H] dofetilide displacement). Conditions: dofetilide displacement; read-out: HERGdof IC50. The method in brief:
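Displacement of 2.5 nM [3H]dofetilide from crude hERG membranes (ca. 15 μg protein) by filtration binding, 90 min at room temperature, 0.5% DMSO final. Non-specific binding defined with 25 μM terfenadine; compounds run as 9-point duplicate curves from 30 μM to 3 nM.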
A general note: hERG is a cardiac potassium channel; its block is linked to QT prolongation.

The target of another assay is cABLT315 kinase (Homo sapiens, UniProt P00519). Description: cABLT315 kinase Caliper assay. The format is biochemical. The protocol: PKCα and cABLT315 Kinase Caliper Assays
Assays were performed in 384 well microtiter plates. Each assay plate contained 8-point serial dilutions for test compounds, as well as two 16-point serial dilutions of staurosporine as reference compound, plus 16 high- and 16 low controls. Liquid handling and incubation steps were done on a Thermo CatX workstation equipped with a Innovadyne Nanodrop Express. Between pipetting steps, tips were cleaned in wash cycles using wash buffer. Plates with terminated kinase reactions were transferred to the Caliper LC3000 workstations for reading. Phosphorylated and unphosphorylated peptides were separated using the Caliper microfluidic mobilitishift technology and Kinase activities were calculated from the amounts of formed phospho-peptide.
Kinase reactions were prepared in 384 low volume plates by the following sequence:
1. 0.05 μA Compound (start with 1.8 mM in 90% DMSO/10% H2O)
2. +4.5 μl 2× peptide/ATP solution
3. +4.5 μl 2× enzyme solution
4. Incubate for 60 min at 30° C.
4. +16 μl stop/run buffer
Independent of the kinase, all reactions were done performed in 50 mM HEPES, pH 7.5, 1 mM DTT, 0.02% Tween20, 0.02% BSA, and 0.6% DMSO. For cABLT315 assay specific details were as follows: [cABLT315 kinase]=2.4 nM, [ATP]=10 uM, [peptide]=2 uM, [Mg]=10 mM. For PKCα, assay specific details were as follows: [kinase]=0.012 nM, [ATP]=17 uM, [peptide]=1 uM, [Mg]=7 mM, [Ca]=0.2 mM.

This passage reports IC50 results from patent US20130109682A1, “CYCLIC ETHER COMPOUNDS USEFUL AS KINASE INHIBITORS” (NOVARTIS AG, priority 2010, published 2013).

T1 sequence (Q12809 whole entry): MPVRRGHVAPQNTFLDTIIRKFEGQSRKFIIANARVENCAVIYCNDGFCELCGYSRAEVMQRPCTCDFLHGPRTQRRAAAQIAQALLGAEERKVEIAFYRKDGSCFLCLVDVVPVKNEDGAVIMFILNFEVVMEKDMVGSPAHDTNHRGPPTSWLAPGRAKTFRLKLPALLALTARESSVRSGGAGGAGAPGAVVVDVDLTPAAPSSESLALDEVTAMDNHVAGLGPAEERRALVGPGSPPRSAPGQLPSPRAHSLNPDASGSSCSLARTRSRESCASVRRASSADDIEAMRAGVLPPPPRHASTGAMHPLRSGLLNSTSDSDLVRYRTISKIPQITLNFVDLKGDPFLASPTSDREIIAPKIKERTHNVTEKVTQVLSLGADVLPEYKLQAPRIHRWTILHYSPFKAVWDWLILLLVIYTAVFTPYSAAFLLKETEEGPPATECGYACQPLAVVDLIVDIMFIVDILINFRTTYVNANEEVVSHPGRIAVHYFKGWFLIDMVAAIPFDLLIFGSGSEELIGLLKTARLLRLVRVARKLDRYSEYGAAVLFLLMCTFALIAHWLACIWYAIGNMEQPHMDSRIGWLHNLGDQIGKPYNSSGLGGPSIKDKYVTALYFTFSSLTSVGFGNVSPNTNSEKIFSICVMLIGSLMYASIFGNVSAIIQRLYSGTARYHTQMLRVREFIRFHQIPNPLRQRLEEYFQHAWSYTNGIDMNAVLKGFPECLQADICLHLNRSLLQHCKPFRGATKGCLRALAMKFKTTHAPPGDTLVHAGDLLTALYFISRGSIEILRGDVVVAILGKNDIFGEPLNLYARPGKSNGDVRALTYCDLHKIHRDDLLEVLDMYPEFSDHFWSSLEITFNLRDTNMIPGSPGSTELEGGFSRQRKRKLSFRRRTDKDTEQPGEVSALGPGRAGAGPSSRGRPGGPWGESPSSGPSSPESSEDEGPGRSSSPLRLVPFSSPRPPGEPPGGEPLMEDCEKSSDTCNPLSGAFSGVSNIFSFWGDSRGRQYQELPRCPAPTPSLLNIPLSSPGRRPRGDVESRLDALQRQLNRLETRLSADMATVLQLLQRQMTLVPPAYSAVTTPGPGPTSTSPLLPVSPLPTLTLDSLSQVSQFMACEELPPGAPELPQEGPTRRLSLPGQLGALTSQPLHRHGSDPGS
KDR kinase, sequence (P35968 20-1356): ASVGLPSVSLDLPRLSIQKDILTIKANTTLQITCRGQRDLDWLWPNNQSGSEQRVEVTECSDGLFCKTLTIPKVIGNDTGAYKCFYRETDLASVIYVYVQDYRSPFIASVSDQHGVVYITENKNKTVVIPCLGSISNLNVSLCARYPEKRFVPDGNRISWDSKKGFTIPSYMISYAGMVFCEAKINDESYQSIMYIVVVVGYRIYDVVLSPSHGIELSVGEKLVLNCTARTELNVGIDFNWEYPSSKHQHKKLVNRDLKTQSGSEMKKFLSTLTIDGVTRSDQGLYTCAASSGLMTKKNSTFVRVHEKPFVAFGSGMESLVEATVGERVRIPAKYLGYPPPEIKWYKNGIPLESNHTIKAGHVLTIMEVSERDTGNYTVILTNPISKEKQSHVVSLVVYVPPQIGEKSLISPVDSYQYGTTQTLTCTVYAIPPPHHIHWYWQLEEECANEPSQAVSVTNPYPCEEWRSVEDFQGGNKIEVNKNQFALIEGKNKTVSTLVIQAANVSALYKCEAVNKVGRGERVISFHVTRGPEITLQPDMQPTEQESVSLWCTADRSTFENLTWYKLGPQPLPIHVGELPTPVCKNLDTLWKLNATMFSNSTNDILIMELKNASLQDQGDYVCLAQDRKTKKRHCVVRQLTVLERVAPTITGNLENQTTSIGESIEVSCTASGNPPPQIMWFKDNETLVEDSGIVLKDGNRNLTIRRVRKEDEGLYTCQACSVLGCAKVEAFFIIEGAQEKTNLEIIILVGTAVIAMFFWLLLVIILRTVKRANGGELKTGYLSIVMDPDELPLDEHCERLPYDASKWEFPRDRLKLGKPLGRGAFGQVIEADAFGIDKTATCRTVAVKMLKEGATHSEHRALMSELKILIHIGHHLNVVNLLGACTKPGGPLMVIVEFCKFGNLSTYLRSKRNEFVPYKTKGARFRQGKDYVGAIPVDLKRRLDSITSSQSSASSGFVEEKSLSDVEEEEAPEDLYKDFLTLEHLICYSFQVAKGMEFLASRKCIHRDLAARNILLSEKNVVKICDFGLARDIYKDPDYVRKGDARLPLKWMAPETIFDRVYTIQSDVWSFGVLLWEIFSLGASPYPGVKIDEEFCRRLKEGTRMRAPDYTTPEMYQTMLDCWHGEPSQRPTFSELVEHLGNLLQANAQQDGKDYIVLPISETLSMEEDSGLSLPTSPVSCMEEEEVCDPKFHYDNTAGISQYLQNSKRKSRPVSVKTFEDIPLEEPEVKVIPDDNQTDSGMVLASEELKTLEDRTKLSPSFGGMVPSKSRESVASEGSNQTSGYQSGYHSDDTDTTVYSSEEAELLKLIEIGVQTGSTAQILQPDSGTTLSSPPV

As a reminder, the IC50 is the midpoint of a concentration-inhibition curve. For `C[C@H]1O[C@@H](c2ccncc2NC(=O)c2nc(-c3ccccc3)ncc2N)C[C@@H](O)[C@]1(C)O` [Example 32, 5-amino-N-(4-((2R,4R,5S,6R)-4,5-dihydroxy-5,6-dimethyltetrahydro-2H-pyran-2-yl)pyridin-3-yl)-2-phenylpyrimidine-4-carboxamide], the 50% inhibitory concentration (IC50) was more than 10000 nM on KDR kinase, more than 30000 nM on hERG and 9000 nM at cABLT315 kinase.
For `Nc1ncc(-c2ccccc2)nc1C(=O)Nc1cnccc1[C@H]1C[C@@H](O)[C@H](O)[C@@H](CCl)O1` [Example 36, 3-amino-N-(4-((2R,4R,5S,6S)-6-(chloromethyl)-4,5-dihydroxytetrahydro-2H-pyran-2-yl)pyridin-3-yl)-6-phenylpyrazine-2-carboxamide], the figures for the IC50 on KDR kinase, on hERG and on cABLT315 kinase were 1 nM, more than 30000 nM and 30 nM, respectively.
For `CC[C@H]1O[C@@H](c2ccncc2NC(=O)c2nc(-c3ccccc3)ncc2N)C[C@@H](O)[C@@H]1O` [Example 39, 5-amino-N-(4-((2R,4R,5S,6R)-6-ethyl-4,5-dihydroxytetrahydro-2H-pyran-2-yl)pyridin-3-yl)-2-phenylpyrimidine-4-carboxamide] the same measures were more than 10000 nM, more than 30000 nM and 8000 nM.
With `C[C@H]1O[C@@H](c2ccncc2NC(=O)c2nc(-c3ccccc3)cnc2N)[C@H](F)[C@@H](O)[C@]1(C)O` [Example 58, 3-amino-N-(4-((2S,3R,4S,5S,6R)-3-fluoro-4,5-dihydroxy-5,6-dimethyltetrahydro-2H-pyran-2-yl)pyridin-3-yl)-6-phenylpyrazine-2-carboxamide], the values for the IC50 at KDR kinase, at hERG and against cABLT315 kinase were 280 nM, more than 30000 nM and 660 nM, respectively.
Taken in the same sequence, the figures for `C[C@@H]1O[C@H](c2ccncc2NC(=O)c2nc(-c3ccccc3)cnc2N)[C@@H](F)[C@H](O)[C@@]1(C)O` [Example 63, 3-amino-N-(4-((2R,3S,4R,5R,6S)-3-fluoro-4,5-dihydroxy-5,6-dimethyltetrahydro-2H-pyran-2-yl)pyridin-3-yl)-6-phenylpyrazine-2-carboxamide] were 220 nM, more than 30000 nM and 650 nM.
For `C[C@H]1O[C@@H](c2ccncc2NC(=O)c2nc(-c3ccccc3)cnc2N)C[C@@H](O)[C@]1(C)O` [Example 84, 3-amino-N-(4-((2R,4R,5S,6R)-4,5-dihydroxy-5,6-dimethyltetrahydro-2H-pyran-2-yl)pyridin-3-yl)-6-phenylpyrazine-2-carboxamide] the same measures were 16 nM, more than 30000 nM and 86 nM.
Turning to `C[C@@H]1O[C@H](c2ccncc2NC(=O)c2nc(-c3ccccc3)cnc2N)C[C@H](O)[C@@]1(C)O` [Example 86, 3-amino-N-(4-((2S,4S,5R,6S)-4,5-dihydroxy-5,6-dimethyltetrahydro-2H-pyran-2-yl)pyridin-3-yl)-6-phenylpyrazine-2-carboxamide], the figures for the half-inhibitory concentration (IC50) against KDR kinase, at hERG and on cABLT315 kinase were 300 nM, 25000 nM and 700 nM, respectively.
